Test results from ChEMBL document CHEMBL1201862, “PubChem BioAssay data set” (2004).
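96-well plates; 48 h exposure; 5 concentrations. Endpoints by linear interpolation between flanking doses. Not reached: highest tested concentration assigned. Here, GI50 denotes the concentration required for 50% inhibition of growth.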 Activity calls are given as the source filed them. No stated cut-off is given here; in the data, active = GI50 up to about 1.1 µM and inactive = higher.

Experiments:
Experiment in all cases: inhibition of tumour cell growth, NCI panel, 48 h
786-0 = system: 786-0
A549 = system: A549
ACHN = system: ACHN
CAKI-1 = system: CAKI-1
CCRF-CEM = system: CCRF-CEM
DU-145 = system: DU-145
EKVX = system: EKVX
HCC 2998 = system: HCC 2998
HCT-116 = system: HCT-116
HCT-15 = system: HCT-15
HL-60 = system: HL-60
HOP-62 = system: HOP-62
HOP-92 = system: HOP-92
HT-29 = system: HT-29
Hs-578T = system: Hs-578T
IGROV-1 = system: IGROV-1
K562 = system: K562
KM12 = system: KM12
LOX IMVI = system: LOX IMVI
M14 = system: M14
MDA-MB-231 = system: MDA-MB-231
MDA-MB-435 = system: MDA-MB-435
MDA-N = system: MDA-N
MOLT-4 = system: MOLT-4
Malme-3M = system: Malme-3M
NCI-H226 = system: NCI-H226
NCI-H23 = system: NCI-H23
NCI-H460 = system: NCI-H460
NCI/ADR-RES = system: NCI/ADR-RES
OVCAR-3 = system: OVCAR-3
OVCAR-4 = system: OVCAR-4
OVCAR-5 = system: OVCAR-5
OVCAR-8 = system: OVCAR-8
RPMI-8226 = system: RPMI-8226
RXF 393 = system: RXF 393
SF-268 = system: SF-268
SK-MEL-28 = system: SK-MEL-28
SK-MEL-2 = system: SK-MEL-2
SK-MEL-5 = system: SK-MEL-5
SK-OV-3 = system: SK-OV-3
SN12C = system: SN12C
SNB-19 = system: SNB-19
SNB-75 = system: SNB-75
SR = system: SR
SW-620 = system: SW-620
T47D = system: T47D
U-251 = system: U-251
UACC-257 = system: UACC-257
UACC-62 = system: UACC-62
UO-31 = system: UO-31
COLO 205 = system: COLO 205
MCF7 = system: MCF7
PC-3 = system: PC-3
SF-295 = system: SF-295
SF-539 = system: SF-539
TK-10 = system: TK-10

NC(=S)NNC(=S)NC(=O)c1ccco1
GI50 (786-0): > 10 µM (inactive)
GI50 (A549): > 10 µM (inactive)
GI50 (ACHN): > 10 µM (inactive)
GI50 (CAKI-1): > 10 µM (inactive)
GI50 (CCRF-CEM): > 10 µM (inactive)
GI50 (DU-145): > 10 µM (inactive)
GI50 (EKVX): > 10 µM (inactive)
GI50 (HCC 2998): > 10 µM (inactive)
GI50 (HCT-116): > 10 µM (inactive)
GI50 (HCT-15): > 10 µM
GI50 (HL-60): > 10 µM (inactive)
GI50 (HOP-62): > 10 µM (inactive)
GI50 (HOP-92): > 10 µM (inactive)
GI50 (HT-29): > 10 µM (inactive)
GI50 (Hs-578T): > 10 µM (inactive)
GI50 (IGROV-1): > 10 µM (inactive)
GI50 (K562): > 10 µM (inactive)
GI50 (KM12): > 10 µM (inactive)
GI50 (LOX IMVI): > 10 µM (inactive)
GI50 (M14): > 10 µM (inactive)
GI50 (MDA-MB-231): > 10 µM (inactive)
GI50 (MDA-MB-435): > 10 µM (inactive)
GI50 (MDA-N): > 10 µM (inactive)
GI50 (MOLT-4): > 10 µM (inactive)
GI50 (Malme-3M): > 10 µM (inactive)
GI50 (NCI-H226): > 10 µM (inactive)
GI50 (NCI-H23): > 10 µM (inactive)
GI50 (NCI-H460): > 10 µM (inactive)
GI50 (NCI/ADR-RES): > 10 µM (inactive)
GI50 (OVCAR-3): > 10 µM (inactive)
GI50 (OVCAR-4): > 10 µM (inactive)
GI50 (OVCAR-5): > 10 µM (inactive)
GI50 (OVCAR-8): > 10 µM (inactive)
GI50 (RPMI-8226): > 10 µM (inactive)
GI50 (RXF 393): > 10 µM (inactive)
GI50 (SF-268): > 10 µM (inactive)
GI50 (SK-MEL-28): > 10 µM (inactive)
GI50 (SK-MEL-2): > 10 µM (inactive)
GI50 (SK-MEL-5): > 10 µM (inactive)
GI50 (SK-OV-3): > 10 µM (inactive)
GI50 (SN12C): > 10 µM (inactive)
GI50 (SNB-19): > 10 µM (inactive)
GI50 (SNB-75): > 10 µM (inactive)
GI50 (SR): > 10 µM (inactive)
GI50 (SW-620): > 10 µM (inactive)
GI50 (T47D): > 10 µM (inactive)
GI50 (U-251): > 10 µM (inactive)
GI50 (UACC-257): > 10 µM (inactive)
GI50 (UACC-62): > 10 µM (inactive)
GI50 (UO-31): > 10 µM (inactive)

COc1ccc(C(=O)/C=C/c2ccc(OCCCOc3ccc(/C=C/C(=O)c4ccc(OC)cc4)cc3)cc2)cc1
GI50 (786-0): > 100 µM (inactive)
GI50 (A549): > 100 µM (inactive)
GI50 (ACHN): > 100 µM (inactive)
GI50 (CAKI-1): > 100 µM (inactive)
GI50 (CCRF-CEM): > 100 µM (inactive)
GI50 (COLO 205): > 100 µM (inactive)
GI50 (DU-145): > 100 µM (inactive)
GI50 (EKVX): > 100 µM (inactive)
GI50 (HCC 2998): > 100 µM (inactive)
GI50 (HCT-116): 24.7 µM (inactive)
GI50 (HCT-15): > 100 µM
GI50 (HL-60): > 100 µM (inactive)
GI50 (HOP-62): > 100 µM (inactive)
GI50 (HT-29): 56.1 µM (inactive)
GI50 (Hs-578T): > 100 µM (inactive)
GI50 (IGROV-1): > 100 µM (inactive)
GI50 (K562): > 100 µM (inactive)
GI50 (KM12): 91.2 µM (inactive)
GI50 (M14): > 100 µM (inactive)
GI50 (MCF7): > 100 µM (inactive)
GI50 (MDA-MB-231): > 100 µM (inactive)
GI50 (MDA-MB-435): > 100 µM (inactive)
GI50 (MDA-N): > 100 µM (inactive)
GI50 (MOLT-4): > 100 µM (inactive)
GI50 (NCI-H226): > 100 µM (inactive)
GI50 (NCI-H460): > 100 µM (inactive)
GI50 (NCI/ADR-RES): > 100 µM (inactive)
GI50 (OVCAR-4): 60.7 µM (inactive)
GI50 (OVCAR-5): > 100 µM (inactive)
GI50 (OVCAR-8): > 100 µM (inactive)
GI50 (PC-3): > 100 µM (inactive)
GI50 (RPMI-8226): 21.8 µM (inactive)
GI50 (RXF 393): > 100 µM (inactive)
GI50 (SF-268): 52.2 µM (inactive)
GI50 (SF-295): > 100 µM (inactive)
GI50 (SF-539): 28.8 µM (inactive)
GI50 (SK-MEL-28): 63 µM (inactive)
GI50 (SK-MEL-2): > 100 µM (inactive)
GI50 (SK-MEL-5): > 100 µM (inactive)
GI50 (SK-OV-3): > 100 µM (inactive)
GI50 (SN12C): > 100 µM (inactive)
GI50 (SNB-19): > 100 µM (inactive)
GI50 (SNB-75): 45.4 µM (inactive)
GI50 (SR): > 100 µM (inactive)
GI50 (SW-620): > 100 µM (inactive)
GI50 (T47D): > 100 µM (inactive)
GI50 (TK-10): > 100 µM (inactive)
GI50 (U-251): > 100 µM (inactive)
GI50 (UACC-257): > 100 µM (inactive)
GI50 (UACC-62): > 100 µM (inactive)
GI50 (UO-31): > 100 µM (inactive)
